# Data: patent US8314121B2, “Imidazolone derivatives, preparation thereof as drugs, pharmaceutical compositions, and use thereof as protein kinase inhibitors, in particular CDC7” (Sanofi, priority 2006, dated 2012)
row,SMILES,melting point
1,"O=C1NC(SCc2ccccc2)=N/C1=C\c1c[nH]c2ncc(Cl)cc12 [Example 61, (5Z)-2-(benzylsulphanyl)-5-[(5-chloro-1H-pyrrolo[2,3-b]pyridin-3-yl)methylidene]-3,5-dihydro-4H-imidazol-4-one]",313 to 315 °C
2,"CCCCC1=N/C(=C\c2c[nH]c3ncc(Cl)cc23)C(=O)N1 [Example 64, (5Z)-2-butyl-5-[(5-chloro-1H-pyrrolo[2,3-b]pyridin-3-yl)methylidene]-3,5-dihydro-4H-imidazol-4-one]",288 to 290 °C
3,"CC(C)C1=N/C(=C\c2c[nH]c3ncc(Cl)cc23)C(=O)N1C [Example 82, (5Z)-5-[(5-chloro-1H-pyrrolo[2,3-b]pyridin-3-yl)methylidene]-3-methyl-2-(1-methylethyl)-3,5-dihydro-4H-imidazol-4-one]",282 °C
4,"CN(Cc1ccco1)C1=N/C(=C\c2c[nH]c3ncc(Cl)cc23)C(=O)N1 [Example 94, (5Z)-5-[(5-chloro-1H-pyrrolo[2,3-b]pyridin-3-yl)methylidene]-2-[(furan-2-ylmethyl)(methyl)amino]-3,5-dihydro-4H-imidazol-4-one]",315 °C
5,"CC(C)CCC1=N/C(=C\c2c[nH]c3ncccc23)C(=O)N1 [Example 68, (5Z)-2-(3-methylbutyl)-5-(1H-pyrrolo[2,3-b]pyridin-3-ylmethylidene)-3,5-dihydro-4H-imidazol-4-one]",274 °C
6,"CN1CCN(C2=N/C(=C\c3c[nH]c4ncc(-c5ccccc5)cc34)C(=O)N2)CC1 [Example 41, (5Z)-2-(4-methylpiperazin-1-yl)-5-[(5-phenyl-1H-pyrrolo[2,3-b]pyridin-3-yl)methylidene]-3,5-dihydro-4H-imidazol-4-one]",304 °C
7,"O=C1NC(N2CCCCCC2)=N/C1=C\c1c[nH]c2ncc(C(F)(F)F)cc12 [Example 49, (5Z)-2-azepan-1-yl-5-{[5-(trifluoromethyl)-1H-pyrrolo[2,3-b]pyridin-3-yl]methylidene}-3,5-dihydro-4H-imidazol-4-one]",340 °C
8,"O=C1NC(N2CCCCCC2)=N/C1=C\c1c[nH]c2ncc(Cl)cc12 [Example 25, (5Z)-2-azepan-1-yl-5-[(5-chloro-1H-pyrrolo[2,3-b]pyridin-3-yl)methylidene]-3,5-dihydro-4H-imidazol-4-one]",310 to 320 °C
9,"COc1cnc2[nH]cc(/C=C3\N=C(NCC4CC4)NC3=O)c2c1 [Example 34, (5Z)-2-[(cyclopropylmethyl)amino]-5-[(5-methoxy-1H-pyrrolo[2,3-b]pyridin-3-yl)methylidene]-3,5-dihydro-4H-imidazol-4-one]",280 to 286 °C
10,"O=C1/C(=C/c2c[nH]c3ncc(Cl)cc23)N=C(Oc2ccccc2)N1c1ccccc1 [Example 97, (5Z)-5-[(5-chloro-1H-pyrrolo[2,3-b]pyridin-3-yl)methylidene]-2-phenoxy-3-phenyl-3,5-dihydro-4H-imidazol-4-one]",287 °C
11,"CC(C)SC1=N/C(=C\c2c[nH]c3ncc(Cl)cc23)C(=O)N1 [Example 63, (5Z)-5-[(5-chloro-1H-pyrrolo[2,3-b]pyridin-3-yl)methylidene]-2-((1-methyl)ethylsulphanyl)-3,5-dihydro-4H-imidazol-4-one]",291 to 293 °C
12,"CN(C)C1=N/C(=C\c2c[nH]c3ncc(Cl)cc23)C(=O)N1 [Example 32, (5Z)-5-[(5-chloro-1H-pyrrolo[2,3-b]pyridin-3-yl)methylidene]-2-(dimethylamino)-3,5-dihydro-4H-imidazol-4-one]",350 °C
13,"CC(C)C1=N/C(=C\c2c[nH]c3ncccc23)C(=O)N1C [Example 81, (5Z)-3-methyl-2-(1-methylethyl)-5-(1H-pyrrolo[2,3-b]pyridin-3-ylmethylidene)-3,5-dihydro-4H-imidazol-4-one]",222 to 224 °C
14,"CN1C(=O)/C(=C/c2c[nH]c3ncccc23)N=C1C1CCCCC1 [Example 70, (5Z)-2-cyclohexyl-3-methyl-5-(1H-pyrrolo[2,3-b]pyridin-3-ylmethylidene)-3,5-dihydro-4H-imidazol-4-one]",261 to 262 °C
15,"O=C1NC(CCc2ccccc2)=N/C1=C\c1c[nH]c2ncccc12 [Example 67, (5Z)-2-(2-Phenylethyl)-5-(1H-pyrrolo[2,3-b]pyridin-3-ylmethylidene)-3,5-dihydro-4H-imidazol-4-one]",270 to 272 °C
16,"CN1C(=O)/C(=C/c2c[nH]c3ncc(Cl)cc23)N=C1C1CCOCC1 [Example 73, (5Z)-5-[(5-chloro-1H-pyrrolo[2,3-b]pyridin-3-yl)methylidene]-3-methyl-2-(tetrahydro-2H-pyran-4-yl)-3,5-dihydro-4H-imidazol-4-one]",338 °C
17,"CC(C)CC1=N/C(=C\c2c[nH]c3ncccc23)C(=O)N1C [Example 75, (5Z)-3-methyl-2-(2-methylpropyl)-5-(1H-pyrrolo[2,3-b]pyridin-3-ylmethylidene)-3,5-dihydro-4H-imidazol-4-one]",201 °C
18,"O=C1NC(CC2CC2)=N/C1=C\c1c[nH]c2ncc(Cl)cc12 [Example 78, (5Z)-2-(cyclopropylmethyl)-5-(5-chloro-1H-pyrrolo[2,3-b]pyridin-3-ylmethylidene)-3,5-dihydro-4H-imidazol-4-one]",295 to 296 °C
19,"O=C1NC(N2CCCCC2)=N/C1=C\c1c[nH]c2ncc(Cl)cc12 [Example 30, (5Z)-5-[(5-chloro-1H-pyrrolo[2,3-b]pyridin-3-yl)methylidene]-2-piperidin-1-yl-3,5-dihydro-4H-imidazol-4-one]",315 to 320 °C
20,"N#Cc1cnc2[nH]cc(/C=C3\N=C(NCC4CC4)NC3=O)c2c1 [Example 37, 3-[(Z)-{2-[(cyclopropylmethyl)amino]-5-oxo-1,5-dihydro-4H-imidazol-4-ylidene}methyl]-1H-pyrrolo[2,3-b]pyridine-5-carbonitrile]",335 °C
21,"CN(Cc1ccccc1)C1=N/C(=C\c2c[nH]c3ncc(Cl)cc23)C(=O)N1 [Example 93, (5Z)-2-[benzyl(methyl)amino]-5-[(5-chloro-1H-pyrrolo[2,3-b]pyridin-3-yl)methylidene]-3,5-dihydro-4H-imidazol-4-one]",310 °C
22,"O=C1NC(N2CCOCC2)=N/C1=C\c1c[nH]c2ncc(-c3ccccc3)cc12 [Example 39, (5Z)-2-morpholin-4-yl-5-[(5-phenyl-1H-pyrrolo[2,3-b]pyridin-3-yl)methylidene]-3,5-dihydro-4H-imidazol-4-one]",361 °C
23,"O=C1NC(N2CCCCCC2)=N/C1=C\c1c[nH]c2ncc(F)cc12 [Example 36, (5Z)-2-azepan-1-yl-5-[(5-fluoro-1H-pyrrolo[2,3-b]pyridin-3-yl)methylidene]-3,5-dihydro-4H-imidazol-4-one]",299 °C
24,"CCCN1C(=O)/C(=C/c2c[nH]c3ncccc23)N=C1C [Example 87, (5Z)-2-methyl-3-propyl-5-(1H-pyrrolo[2,3-b]pyridin-3-ylmethylidene)-3,5-dihydro-4H-imidazol-4-one]",206 °C
25,"CN1C(=O)/C(=C/c2c[nH]c3ncccc23)N=C1C1CCOCC1 [Example 72, (5Z)-5-[(1H-pyrrolo[2,3-b]pyridin-3-yl)methylidene]-3-methyl-2-(tetrahydro-2H-pyran-4-yl)-3,5-dihydro-4H-imidazol-4-one]",283 to 285 °C
